In PMC3127140, “In Vivo Anti-Tumor Activity of Polypeptide HM-3 Modified by Different Polyethylene Glycols (PEG)” (International Journal of Molecular Sciences, 2011):

Test system: Human hepatic carcinoma SMMC-7721 cell line
Experiment: Inhibitory effect on growth of human hepatoma SMMC-7721 xenografts in nude mice (tumor weight / tumor volume)
Type: in vivo, BALB/c nude mouse
Details: SMMC-7721 xenograft in BALB/c nude mice, n = 6 per group, i.v. for 21 days, tumors weighed the next day; (W − Wt)/W versus normal saline control; Taxol 10 mg/kg twice a week; HM-3 3 mg/(kg·d) twice a day; ALD-mPEG5k-HM-3 11.4 mg/(kg·d) once a day; ALD-mPEG10k-HM-3 and SC-mPEG10k-HM-3 19.9 mg/(kg·2d) every two days; SC-mPEG20k-HM-3 36.7 mg/(kg·2d) every two days (dose as total PEG conjugate)
Experimental: Human hepatic carcinoma SMMC-7721 cell line was purchased from American type Cell Culture (ATCC, Shanghai, China) and maintained in Dulbecco’s modified Eagle’s medium (DMEM) with 10% fetal bovine serum and antibiotics. BALB/c nude female mouse (SPF grade, 4–5 w, 20.9 ± 0.492 g) were purchased from the Shanghai Laboratory Animal Center of the Chinese Academy of Sciences.
SMMC-7721 cells were cultured in DMEM medium under 5% CO2/saturated humidified air at 37 °C. Cells were digested with the mixture of the trypsin (0.25%) and EDTA (0.02%) at logarithmic growth phase and passaged every 3–4 day. […]
All the mice (20 g) were administrated intravenously for 21 days and the tumor volumes were measured every two days. […] Antitumor ratio determined by the tumor volumes is (V − Vt)/V (V is the average tumor volume of the control group, and Vt is the average tumor volume of the treated group). The antitumor ratio by the tumor weights was also calculated as (W − Wt)/W (W is the average tumor weight of the control group, and Wt is the average tumor weight of the treatment group).
The data was analyzed using the statistics software SPSS13.0, which are expressed as mean ± SD. Statistical significance was assessed using the Student t test. […]

## CC(=O)O[C@H]1C(=O)[C@@]2(C)[C@H]([C@H](OC(=O)c3ccccc3)[C@]3(O)C[C@H](OC(=O)[C@H](O)[C@@H](NC(=O)c4ccccc4)c4ccccc4)C(C)=C1C3(C)C)[C@]1(OC(C)=O)CO[C@@H]1C[C@@H]2O [Taxol, paclitaxel]
  Tumor weight inhibition rate (inhibition rate of average tumor weight): 44.50%
